Laboratory results taken from PMC9034499, “RORγt agonist enhances anti-PD-1 therapy by promoting monocyte-derived dendritic cells through CXCL10 in cancers” (Journal of Experimental & Clinical Cancer Research : CR, 2022).

What was measured:
RORβ = molecular target: T1, RORβ (Homo sapiens, UniProt Q92753); test: RORβ Gal4 reporter gene assay; type: cell-based
T1 construct: expressed in transfected cells
T1 sequence (Q92753 1-470): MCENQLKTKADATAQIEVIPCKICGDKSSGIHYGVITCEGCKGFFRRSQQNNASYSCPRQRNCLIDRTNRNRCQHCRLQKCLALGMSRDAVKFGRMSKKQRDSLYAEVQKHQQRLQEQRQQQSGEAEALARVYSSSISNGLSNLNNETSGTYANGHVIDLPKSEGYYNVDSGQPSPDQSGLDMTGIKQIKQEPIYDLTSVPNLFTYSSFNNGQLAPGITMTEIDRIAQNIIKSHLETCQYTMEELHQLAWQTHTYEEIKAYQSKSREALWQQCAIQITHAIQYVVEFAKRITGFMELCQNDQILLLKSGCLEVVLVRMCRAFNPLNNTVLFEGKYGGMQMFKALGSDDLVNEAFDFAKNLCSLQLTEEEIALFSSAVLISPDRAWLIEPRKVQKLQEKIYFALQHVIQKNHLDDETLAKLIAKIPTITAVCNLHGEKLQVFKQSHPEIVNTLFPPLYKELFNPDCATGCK
Procedure: The hRORγt LBD coding sequence was inserted into a pBIND expression vector (Promega, E1581) to express the ROR-GAL4 binding domain chimeric receptors. This expression vector and a reporter vector (pGL4.35, which carries a stably integrated GAL4 promoter-driven luciferase reporter gene [luc2P/9XGAL4 UAS/Hygro]) were co-transfected into the HEK293T host cells. The assay was performed according to a previous study. EC50 of the sigmoidal fits were analyzed using Prism 5 and a four-parameter logistic fit equation, Y = bottom + (top–bottom) / (1 + 10(logEC50 − X) × hill slope). "X" is the log of compound concentration, and "Y" is the response, which increases as X increases. Y starts at "bottom" and goes to "top" with a sigmoid shape.
Supplementary file 13046_2022_2289_MOESM2_ESM.pdf: Additional file 2: Fig. S2. Selectivity of RORγt agonists in vitro. […] Lymphoma EL4 cells were treated with various concentrations of 8-074 for 48 hours and analyzed by flow cytometry after Annexin V-FITC/PI staining. […] (h) The relative mRNA expression of Cd19 in B cells as determined by qPCR. […] (i) Relative mRNA expression of Il-1β levels in macrophages as determined by qPCR. ***P < 0.001. (j) Relative mRNA expression of Il-6 in macrophages as determined by qPCR. *P < 0.05. (k) Relative mRNA expression of Il-10 in macrophages as determined by qPCR. *P < 0.05. […]

[1] = Pharmacokinetics in C57BL/6 mice; type: in vivo; details: male, C57BL/6, mouse, plasma; for Tmax: n = 3
Procedure: Male C57BL/6 mice were divided into two groups: 8-074 single intravenous injection group (2 mg/kg, n = 3) and 8-074 single gavage group (5 mg/kg, n = 3). After administration, blood samples were collected at 0.25, 0.5, 1, 2, 5, 7, and 24 h. Then the plasma samples were separated and stored at − 80 °C until the analysis. After being thawed at room temperature, 10 μL of plasma samples were added with 150 μL of precipitant containing the internal standard (verapamil 40 ng/mL) for the protein precipitation. The supernatant was mixed with a suitable volume of water and then analyzed using liquid chromatography in tandem with mass spectrometry (LC-MS/MS). The concentration of 8–074 in the plasma of the C57 mice after administration was determined using the inter-run standard curve samples (linear range of 3–10,000 ng/mL) and quality control samples.

EC50 (RORβ): > 10 µM
MRT inf ([1]; iv, 2 mg/kg, i.v. 2 mg/kg, first MRTINF line (r8)): 3.84 ± 0.33 h
MRT inf ([1]; iv, 2 mg/kg, i.v. 2 mg/kg, second MRTINF line (r9)): 2.97 ± 0.25 h
AUC(0-inf) ([1]; iv, i.v. 2 mg/kg): 20600 ng·h/mL
AUC(0-t) ([1]; iv, i.v. 2 mg/kg): 20500 ng·h/mL
Cmax ([1]; iv, i.v. 2 mg/kg): 4800 ± 1200 ng/mL
clearance ([1]; iv, i.v. 2 mg/kg): 1.63 ± 0.11 mL/min/kg
Tmax ([1]; iv, i.v. 2 mg/kg): 0.25 h
bioavailability ([1]; oral, i.g. 5 mg/kg vs i.v. 2 mg/kg): 38%
MRT inf ([1]; po, 5 mg/kg, i.g. 5 mg/kg, first MRTINF line (r8)): 4.49 ± 1.2 h
MRT inf ([1]; po, 5 mg/kg, i.g. 5 mg/kg, second MRTINF line (r9)): 3.34 ± 0.52 h
AUC(0-inf) ([1]; po, i.g. 5 mg/kg): 19800 ng·h/mL
AUC(0-t) ([1]; po, i.g. 5 mg/kg): 19700 ng·h/mL
Cmax ([1]; po, i.g. 5 mg/kg): 3020 ± 110 ng/mL
Tmax ([1]; po, i.g. 5 mg/kg): 1.67 ± 0.58 h
half-life ([1]; po, single intragastric administration of 5 mg/kg): 3.34 ± 0.52 h
AUC ([1]; route not given): 20600 ± 1500 ng·h/mL
SMILES: CCS(=O)(=O)c1ccc(CC(=O)Nc2ccc(-c3ccc(CC(C)C)c(C#N)c3)c(C(F)(F)F)c2)cc1 [8-074]
